We go through ten compounds from patent US10029986B2, “Alkynyl pyridine-substituted amide compound and pesticide” (NISSAN CHEMICAL INDUSTRIES, LTD., priority 2014, dated 2018).

Series [1] concerns Erysiphe polygoni (synonym: Erysiphe betae). The series is described as follows: Test on the preventive effect against cucumber powdery mildew. Format: in vivo. The note with it: 216 h, 5 ml per pot sprayed, cucumber cotyledon stage, 9 days after inoculation; for pest or weed control at 500 µg/mL: test solution A 500 ppm. As for the experimental part: Compounds of the present invention were dissolved in a solvent for emulsion (a mixture of Sorpol (registered trademark) 3005XL (manufactured by Toho Chemical Industry Co., Ltd.): N-methylpyrrolidone: Solvesso (registered trademark) 200 (manufactured by ExxonMobil Chemical) in a ratio of 1:5:2) to prepare 20 wt % emulsifiable concentrates. Then, distilled water was added to dilute the emulsifiable concentrates to the prescribed concentration (500 ppm), and the obtained solutions were used in the following the Test Examples 1 to 8. Cucumber (varieties: Sagami Hanjiro) was seeded in 90 cm^3 plastic pot, and at the cotyledon stage, 5 ml per pot of test solution A of the compounds of the present invention was sprayed. After drying in air, the pot was placed in an air-conditioned greenhouse (20° C.), and a suspension of conidium of Erysiphe polygoni (synonym: Erysiphe betae) was sprayed. After the pot were replaced at the same temperature for 9 days, the proportion of the formed lesion in the inoculated leaves were counted to calculate the control value in accordance with the following formula. The test was carried out in duplicate. Control value=[1−(lesion area ratio in treated plot/lesion are a ratio in non-treated plot)]×100

Series [2] concerns Phaeosphaeria nodorum (Synonym: Septoria nodorum). The series is described as follows: Test on the preventive effect against wheat glume blotch. Type of series: in vivo. Conditions: Parastagonospora nodorum, 144 h, 5 ml per pot, wheat 1.3-leaf stage, 2 days inoculation chamber then 6 days at 20° C.; for pest or weed control at 500 µg/mL: test solution A 500 ppm. As for the experimental part: Compounds of the present invention were dissolved in a solvent for emulsion (a mixture of Sorpol (registered trademark) 3005XL (manufactured by Toho Chemical Industry Co., Ltd.): N-methylpyrrolidone: Solvesso (registered trademark) 200 (manufactured by ExxonMobil Chemical) in a ratio of 1:5:2) to prepare 20 wt % emulsifiable concentrates. Then, distilled water was added to dilute the emulsifiable concentrates to the prescribed concentration (500 ppm), and the obtained solutions were used in the following the Test Examples 1 to 8. Wheat (varieties: Haruyutaka) was seeded in 90 cm^3 plastic pot, and at 1.3-leaf stage, 5 ml per pot of test solution A of the compounds of the present invention was applied. One day after treatment, a suspension of conidium of Phaeosphaeria nodorum (Synonym: Septoria nodorum) was sprayed to the wheat, and the pot was left in the inoculation chamber at 20° C. under humidity of 100% RH for 2 days. Then, the pot was placed in an air-conditioned greenhouse (20° C.) for 6 days. The proportion of the formed lesion in the inoculated leaves were measured to calculate the control value in accordance with the same formula as in the Test Example 1. The test was carried out in duplicate.

Series [3] relates to Botrytis cinerea. The series is described as follows: Test on the preventive effect against cucumber gray mold (spore inoculation). Type of series: in vivo. Conditions: 72 h, 5 ml per pot, cucumber cut leaves, conidium inoculation, 3 days at 20° C.; for pest or weed control at 500 µg/mL: test solution A 500 ppm. The protocol:
Compounds of the present invention were dissolved in a solvent for emulsion (a mixture of Sorpol (registered trademark) 3005XL (manufactured by Toho Chemical Industry Co., Ltd.): N-methylpyrrolidone: Solvesso (registered trademark) 200 (manufactured by ExxonMobil Chemical) in a ratio of 1:5:2) to prepare 20 wt % emulsifiable concentrates. Then, distilled water was added to dilute the emulsifiable concentrates to the prescribed concentration (500 ppm), and the obtained solutions were used in the following the Test Examples 1 to 8. Cucumber (varieties: Sagami Hanjiro) was seeded in 90 cm^3 plastic pot, and at the cotyledon stage, 5 ml per pot of test solution A of the compounds of the present invention was applied. After drying in air, the treated leaves were cut and transferred in plastic containers. 30 μl of a mixture of a suspension of conidium of Botrytis cinerea and a dissolved PDA medium in a ratio of 1:1 was dropped on each treated leaf and inoculated. After the inoculation, the plastic containers were placed in 20° C. with humid conditions for 3 days, and the proportion of the formed lesion in the inoculated leaves were counted to calculate the control value in accordance with the same formula as in the Test Example 1. The test was carried out in duplicate.

The subject of series [4] is Sclerotinia sclerotiorum. The series is described as follows: Test on the preventive effect against cucumber stem rot. Type of series: in vivo. Conditions: 48 h, 5 ml per pot, agar block inoculation, 2 days at 20° C.; for pest or weed control at 500 µg/mL: test solution A 500 ppm. The protocol:
(§1) Compounds of the present invention were dissolved in a solvent for emulsion (a mixture of Sorpol (registered trademark) 3005XL (manufactured by Toho Chemical Industry Co., Ltd.): N-methylpyrrolidone: Solvesso (registered trademark) 200 (manufactured by ExxonMobil Chemical) in a ratio of 1:5:2) to prepare 20 wt % emulsifiable concentrates. Then, distilled water was added to dilute the emulsifiable concentrates to the prescribed concentration (500 ppm), and the obtained solutions were used in the following the Test Examples 1 to 8. Cucumber (varieties: Sagami Hanjiro) was seeded in 90 cm^3 plastic pot, and at the cotyledon stage, 5 ml per pot of test solution A of the compounds of the present invention was applied. After drying in air, the pot was transferred in a plastic container, and an agar blocks (diameter: 5 mm) containing Sclerotinia sclerotiorum which was preliminarily cultivated in a PDA medium was inoculated to the seed leaves of the cucumber treated with the solution. After the inoculation, the plastic container was covered with a plastic sheet, and placed at 20° C. and humidified for 2 days, thus the proportion of the formed lesion in the inoculated leaves were measured to calculate the control value in accordance with the same formula as in the Test Example 1. The test was carried out in duplicate.

For series [5], the system named is Blumeria graminis f. sp. tritici. Nature of the series: Test on the preventive effect against wheat powdery mildew. Format: in vivo. The note with it: 168 h, 5 ml per pot, wheat 1.3-leaf stage, 7 days after inoculation; for pest or weed control at 500 µg/mL: test solution A 500 ppm. The protocol:
Compounds of the present invention were dissolved in a solvent for emulsion (a mixture of Sorpol (registered trademark) 3005XL (manufactured by Toho Chemical Industry Co., Ltd.): N-methylpyrrolidone: Solvesso (registered trademark) 200 (manufactured by ExxonMobil Chemical) in a ratio of 1:5:2) to prepare 20 wt % emulsifiable concentrates. Then, distilled water was added to dilute the emulsifiable concentrates to the prescribed concentration (500 ppm), and the obtained solutions were used in the following the Test Examples 1 to 8. Wheat (varieties: Norin 61) was seeded in 90 cm^3 plastic pot, and at the 1.3-leaf stage, 5 ml per pot of test solution A of the compounds of the present invention were applied. One day after treatment, the pot was placed in an air-conditioned greenhouse (20° C.), and conidium of Blumeria graminis f. sp. tritici was inoculated to the wheat. 7 days after, the proportion of the formed lesion in the inoculated leaves were measured to calculate the control value in accordance with the same formula as in the Test Example 1. The test was carried out in duplicate.

Series [6] relates to Botrytis cinerea. The series is described as follows: Test on the preventive effect against cucumber gray mold (mycelium inoculation). Format: in vivo. Conditions: 48 h, 5 ml per pot, cucumber cotyledon, agar block inoculation, 2 days at 20° C.; for pest or weed control at 500 µg/mL: test solution A 500 ppm. The protocol:
as §1, with “applied. On the next day,” for “applied. After drying in air,”, “containing Botrytis cinerea” for “containing Sclerotinia sclerotiorum”, “inoculated on” for “inoculated to”, “the cotyledon” for “the seed leaves”, “sheet, then” for “sheet, and”, “2 days. Thus” for “2 days, thus”

In series [7] the test system is Barber pole worm (Haemonchus contortus). Nature of the series: Insecticidal test against Barber pole worm (eggs, 96 well plate). Format: in vivo. Conditions: 96 h, test solution B 100 ppm, 10 μl per well, 25° C. dark, 4 days after treatment, read-out: efficacy (unhatched eggs and inactive larvae relative to non-treated). As for the experimental part:
(§2) Compounds of the present invention were dissolved in dimethyl sulfoxide to prepare 1 wt % solutions. Then, distilled water was added to dilute the solutions to the prescribed concentration (100 ppm), and the obtained solutions were used in the following the Test Examples 9 to 12. 60 μl of a potato dextrose 1% agar medium was added to each well of a 96 well plate, and 30 μl of sterilized water containing eggs of Barber pole worm (Haemonchus contortus) (10 eggs/3 μl) was added to each well. Further, 10 μl per well of test solution B of the compounds of the present invention was added, and the plate was left at rest at 25° C. under dark conditions.

Series [8] deals with Southern root-knot nematode (Meloidogyne incoqnita). The series is described as follows: Insecticidal test against Southern root-knot nematode (eggs, 96 well plate). Type of series: in vivo. The note with it: 96 h, test solution B 100 ppm, 10 μl per well, 25° C. dark, 4 days after treatment, read-out: efficacy (unhatched eggs + inactive larvae relative to non-treated). The protocol: as §2, with “Southern root-knot nematode (Meloidogyne incoqnita)” for “Barber pole worm (Haemonchus contortus)”

As for `Cn1cc(C(=O)NCC(F)(F)c2ncc(C#CCF)cc2Cl)c(C(F)F)n1` [8-005, N-[2-[3-chloro-5-(3-fluoro-1-propynyl)pyridin-2-yl]-2,2-difluoroethyl]-3-difluoromethyl-1-methyl-1H-pyrazole-4-carboxamide], the melting point lay in the range of 110 to 111 °C.

Turning to `Cn1cc(C(=O)NCC(C#N)c2ncc(C#CC3CC3)cc2Cl)c(C(F)F)n1` (centres unmarked) [8-021, N-[2-[3-chchloro-5-(cyclopropylethynyl)pyridin-2-yl]-2-cyanoethyl]-3-difluoromethyl-1-methyl-1H-pyrazole-4-carboxamide], the melting point is 43 to 46 °C.

As for `CC(NC(=O)c1ccccc1C(F)(F)F)C(SCC(F)(F)F)c1ncc(C#CC2CC2)cc1Cl` (centres unmarked) [1-032], the pest or weed control at 500 µg/mL in series [1] and in series [2] was not below 70% in each case.

Compound `CC(NC(=O)c1cccnc1C(F)(F)F)C(SCC(F)(F)F)c1ncc(C#CC2CC2)cc1Cl` (centres unmarked) [3-034a] registered a melting point of 65 to 66 °C.

On to `CC(NC(=O)c1cccnc1Cl)C(SCC(F)(F)F)c1ncc(C#CC2CC2)cc1Cl` (centres unmarked) [3-032], for which the pest or weed control at 500 µg/mL in series [1], in series [3], in series [4] and in series [2] was not below 70% each time.

For `CCOC(c1ncc(C#CC2CC2)cc1Cl)C(C)NC(=O)c1ccccc1C(F)(F)F` (centres unmarked) [1-026], the pest or weed control at 500 µg/mL in series [1], in series [3], in series [4], in series [2], in [5] and in series [6] was not below 70% throughout.

Regarding `CC(NC(=O)c1cccnc1C(F)(F)F)C(SCC(F)(F)F)c1ncc(C#CC2CC2)cc1Cl` (centres unmarked) [3-034], the pest or weed control at 500 µg/mL in [1], in series [3], in series [4], in [2] and in series [6] was not below 70% in each case.

For the compound `CC(NC(=O)c1ccccc1C(F)(F)F)C(OCC(F)(F)F)c1ncc(C#CC2CC2)cc1Cl` (centres unmarked) [1-027], the pest or weed control at 500 µg/mL in series [1], in series [3], in [4], in series [2], in [5] and in series [6] was not below 70% throughout.

For the compound `O=C(NCC(CC(F)(F)F)c1ncc(C#CC2CC2)cc1Cl)c1ccccc1C(F)(F)F` (centres unmarked) [1-010], the pest or weed control at 500 µg/mL in series [1], in [3], in series [4] and in [2] was not below 70% in each case. In addition, the pest or weed control at 100 µg/mL in [7] and in [8] was not below 50% each time.

On to `CCOC(c1ncc(C#CC2CC2)cc1Cl)C(C)NC(=O)c1cccnc1C(F)F` (centres unmarked) [3-022], for which the pest or weed control at 100 ppm in [1] (100 ppm solution (symbol *)), in series [3] (100 ppm solution (symbol *)), in [4] (100 ppm solution (symbol *)), in [2] (100 ppm solution (symbol *)), in series [5] (100 ppm solution (symbol *)) and in [6] (100 ppm solution (symbol *)) was not below 70% throughout.
